# pKi: −log10 of the molar value. Like-named read-outs stand apart in the source and are kept apart here.
# Target: T1, PgQC (Porphyromonas gingivalis, UniProt Q7MT37)
# T1 construct: Ki; RA (average residual QC activity of PgQC); other: c = 1 μM; other: c = 1.5 μM; other: c = 10 μM; other: c = 100 μM; other: c = 12 μM; RA; fused on or other part: N-terminal His tag from pET28a(+), cleaved off by thrombin before the enzymatic characterisation
# Test: biochemical
# Parameters: species or system P. gingivalis
# Conditions: for pKi: inhibition of PgQC, H-Gln-AMC, 50 mM Tris-HCl, 50 mM NaCl pH 8.0, 30° C.
# Protocol: The assay consists of varying concentration of the fluorogenic substrate and 0.5 U pyroglutaminyl aminopeptidase in 50 mM Tris-HCl, 50 mM NaCl at pH 8.0. After 10 minute incubation time at 30° C. reaction was initiated by addition of bacQC to a final volume of 125 μl reaction mixture. […] All determinations were carried out in 96 well microtiter plates (Fisher Scientific) at 30° C. using the FluoStar Optima (BMG Labtech).
# For inhibitor testing, the sample composition was the same as described above, except for the addition of the putative inhibitory compound. […] (∘) represents reaction without inhibitor. Determinations were carried out in 50 mM Tris-HCl, 50 mM NaCl pH 8.0 and 1% (v/v) DMSO at 30° C.
# RA refers to the average residual QC activity of PgQC measured in the presence of a concentration c of the respective compound. Ki refers to the average Ki values measured as described above, and Std(Ki) refers to the standard deviation of Ki.
# [1] = read-out: RA (average residual QC activity of PgQC)
compound,measurement,setting,value
"COC(=O)/C=C/CN1CCc2[nH]cnc2C1 [MWT-S-00138, Methyl (E)-4-(3,4,6,7-tetrahydroimidazo[4,5-c]pyridin-5-yl)but-2-enoate]",pKi,Ki (average),5.52
same,remaining activity at 20 µM,[1],21%
"c1ccc(CN2CCc3[nH]cnc3C2)cc1 [MWT-S-00139, 5-Benzyl-3,4,6,7-tetrahydroimidazo[4,5-c]pyridine]",pKi,read-out: Ki (average),6.04
same,remaining activity at 8 µM,[1],18%
"c1ccc(CCN2CCc3[nH]cnc3C2)cc1 [MWT-S-00145, 5-(2-Phenylethyl)-3,4,6,7-tetrahydroimidazo[4,5-c]pyridine]",pKi,read-out: Ki (average),5.19
same,remaining activity at 40 µM,[1],21%
"O=C(/C=C/c1ccccc1)N1CCc2[nH]cnc2C1 [MWT-S-00146, (E)-3-Phenyl-1-(3,4,6,7-tetrahydroimidazo[4,5-c]pyridin-5-yl)prop-2-en-1-one]",pKi,read-out: Ki (average),5.80
same,remaining activity at 15 µM,[1],18%
"O=C(CCc1ccccc1)N1CCc2[nH]cnc2C1 [MWT-S-00147, 3-Phenyl-1-(3,4,6,7-tetrahydroimidazo[4,5-c]pyridin-5-yl)propan-1-one]",pKi,read-out: Ki (average),5.76
same,remaining activity at 12 µM,[1],22%
"O=C(Cc1ccccc1)N1CCc2[nH]cnc2C1 [MWT-S-00148, 2-Phenyl-1-(3,4,6,7-tetrahydroimidazo[4,5-c]pyridin-5-yl)ethanone]",pKi,read-out: Ki (average),5.77
same,remaining activity at 8 µM,[1],29%
"O=C(c1ccccc1)N1CCc2[nH]cnc2C1 [MWT-S-00149, Phenyl(3,4,6,7-tetrahydroimidazo[4,5-c]pyridin-5-yl)methanone]",pKi,read-out: Ki (average),6.36
same,remaining activity at 4 µM,[1],20%
"O=C(c1ccc(F)cc1)N1CCc2[nH]cnc2C1 [MWT-S-00156, (4-Fluorophenyl)-(3,4,6,7-tetrahydroimidazo[4,5-c]pyridin-5-yl)methanone]",pKi,read-out: Ki (average),6.06
same,remaining activity at 5 µM,[1],24%
"COc1ccc(C(=O)N2CCc3[nH]cnc3C2)cc1 [MWT-S-00157, (4-Methoxyphenyl)-(3,4,6,7-tetrahydroimidazo[4,5-c]pyridin-5-yl)methanone]",pKi,read-out: Ki (average),6.08
same,remaining activity at 5 µM,[1],24%
"COc1cccc(C(=O)N2CCc3[nH]cnc3C2)c1 [MWT-S-00158, (3-Methoxyphenyl)-(3,4,6,7-tetrahydroimidazo[4,5-c]pyridin-5-yl)methanone]",pKi,read-out: Ki (average),6.47
same,remaining activity at 2 µM,[1],21%
"O=C(c1ccc(Cl)c(Cl)c1)N1CCc2[nH]cnc2C1 [MWT-S-00159, (3,4-Dichlorophenyl)-(3,4,6,7-tetrahydroimidazo[4,5-c]pyridin-5-yl)methanone]",pKi,read-out: Ki (average),6.59
same,remaining activity at 2 µM,[1],18%
"O=C(c1ccc(Cl)cc1)N1CCc2[nH]cnc2C1 [MWT-S-00160, (4-Chlorophenyl)-(3,4,6,7-tetrahydroimidazo[4,5-c]pyridin-5-yl)methanone]",pKi,read-out: Ki (average),6.17
same,remaining activity at 5 µM,[1],20%
"c1ccc(CN2CCc3[nH]cnc3C23COC3)cc1 [MWT-S-00260, 5-Benzylspiro[6,7-dihydro-3H-imidazo[4,5-c]pyridine-4,3′-oxetane]]",pKi,read-out: Ki (average),5.75
same,remaining activity at 10 µM,[1],22%
"Fc1cc(CN2CCc3[nH]cnc3C2c2ccccc2)cc(F)c1F (stereo not shown) [MWT-S-00261, 4-Phenyl-5-[(3,4,5-trifluorophenyl)methyl]-3,4,6,7-tetrahydroimidazo[4,5-c]pyridine]",remaining activity at 20 µM,[1],93%
c1ccc(C2NCCc3[nH]cnc32)cc1 (stereo not shown) [MWT-S-00264],remaining activity at 100 µM,[1],92%
"CC1c2nc[nH]c2CCN1Cc1ccccc1 (stereo not shown) [MWT-S-00265, 5-Benzyl-4-methyl-3,4,6,7-tetrahydroimidazo[4,5-c]pyridine]",pKi,read-out: Ki (average),5.51
same,remaining activity at 20 µM,[1],21%
"Fc1cc(CN2CCc3[nH]cnc3C23COC3)cc(F)c1F [MWT-S-00266, 5-[(3,4,5-Trifluorophenyl)methyl]spiro[6,7-dihydro-3H-imidazo[4,5-c]pyridine-4,3′-oxetane]]",pKi,Ki (average),6.25
same,remaining activity at 4 µM,[1],19%
"CC1c2nc[nH]c2CCN1Cc1cc(F)c(F)c(F)c1 (stereo not shown) [MWT-S-00267, 4-Methyl-5-[(3,4,5-trifluorophenyl)methyl]-3,4,6,7-tetrahydro-imidazo[4,5-c]pyridine]",pKi,Ki (average),6.28
same,remaining activity at 4 µM,[1],20%
"c1ccc(CN2CCc3[nH]cnc3C2c2ccccc2)cc1 (stereo not shown) [MWT-S-00268, 5-Benzyl-4-phenyl-3,4,6,7-tetrahydroimidazo[4,5-c]pyridine]",remaining activity at 16 µM,[1],93%
CC1c2nc[nH]c2CCN1C(=O)c1ccccc1 (stereo not shown) [MWT-S-00327],remaining activity at 100 µM,[1],18%
"c1nc2c([nH]1)CCN(Cc1ccc(OCCN3CCOCC3)cc1)C2 [MWT-S-00330, 4-[2-[4-(1,4,6,7-Tetrahydroimidazo[4,5-c]pyridin-5-ylmethyl)phenoxy]ethyl]morpholine]",pKi,Ki (average),6.03
same,remaining activity at 8 µM,[1],22%
"CCCCOc1ccc(CN2CCc3[nH]cnc3C2)cc1 [MWT-S-00331, 5-[(4-Butoxyphenyl)methyl]-1,4,6,7-tetrahydroimidazo[4,5-c]pyridine]",pKi,Ki (average),6.60
same,remaining activity at 1.5 µM,[1],26%
"COc1cccc(CN2CCc3[nH]cnc3C2)c1 [MWT-S-00343, 5-[(3-Methoxyphenyl)methyl]-1,4,6,7-tetrahydroimidazo[4,5-c]pyridine]",remaining activity at 1 µM,[1],65%
"FC1(F)Oc2ccc(CN3CCc4[nH]cnc4C3)cc2O1 [MWT-S-00344, 5-[(2,2-Difluoro-1,3-benzodioxol-5-yl)methyl]-1,4,6,7-tetrahydro-imidazo[4,5-c]pyridine]",remaining activity at 1 µM,[1],56%
"c1ccc(COc2ccc(CN3CCc4[nH]cnc4C3)cc2)cc1 [MWT-S-00359, 5-[(4-Benzyloxyphenyl)methyl]-1,4,6,7-tetrahydroimidazo[4,5-c]pyridine]",pKi,Ki (average),6.72
same,remaining activity at 1 µM,[1],31%
"c1cc(CN2CCc3[nH]cnc3C2)cc(N2CCCC2)c1 [MWT-S-00361, 5-[(3-Pyrrolidin-1-ylphenyl)methyl]-1,4,6,7-tetrahydroimidazo[4,5-c]pyridine]",remaining activity at 1 µM,[1],80%
"c1nc2c([nH]1)CCN(Cc1ccc3c(c1)OCCO3)C2 [MWT-S-00380, 5-(2,3-Dihydro-1,4-benzodioxin-6-ylmethyl)-1,4,6,7-tetrahydro-imidazo[4,5-c]pyridine]",pKi,Ki (average),6.51
same,remaining activity at 1 µM,[1],39%
"Cc1ccc(CN2CCc3[nH]cnc3C2)cc1 [MWT-S-00420, 5-(p-Tolylmethyl)-1,4,6,7-tetrahydroimidazo[4,5-c]pyridine]",pKi,Ki (average),6.09
same,remaining activity at 10 µM,[1],16%
"Clc1ccc(CN2CCc3[nH]cnc3C2)cc1 [MWT-S-00421, 5-[(4-Chlorophenyl)methyl]-1,4,6,7-tetrahydroimidazo[4,5-c]pyridine]",pKi,Ki (average),6.27
same,remaining activity at 10 µM,[1],11%
"Clc1ccc(CN2CCc3[nH]cnc3C2)cc1Cl [MWT-S-00423, 5-[(3,4-Dichlorophenyl)methyl]-1,4,6,7-tetrahydroimidazo[4,5-c]pyridine]",pKi,Ki (average),6.44
same,remaining activity at 10 µM,[1],8%
"O=C(c1cccc(Cl)c1)N1CCc2[nH]cnc2C1 [MWT-S-00425, (3-Chlorophenyl)(1,4,6,7-tetrahydro-5H-imidazo[4,5-c]pyridin-5-yl)methanone]",pKi,read-out: Ki (average),6.76
same,remaining activity at 10 µM,[1],5%
"COc1ccc(C(=O)N2CCc3[nH]cnc3C2)cc1OC [MWT-S-00426, (3,4-Dimethoxyphenyl)(1,4,6,7-tetrahydro-5H-imidazo[4,5-c]pyridin-5-yl)methanone]",pKi,read-out: Ki (average),5.83
same,remaining activity at 10 µM,[1],26%
"O=C(c1ccc2c(c1)OCO2)N1CCc2[nH]cnc2C1 [MWT-S-00427, Benzo[d][1,3]dioxol-5-yl(1,4,6,7-tetrahydro-5H-imidazo[4,5-c]pyridin-5-yl)methanone]",pKi,read-out: Ki (average),6.25
same,remaining activity at 10 µM,[1],13%
"O=C(c1ccc(-c2ccccc2)cc1)N1CCc2[nH]cnc2C1 [MWT-S-00428, [1,1′-Biphenyl]-4-yl(1,4,6,7-tetrahydro-5H-imidazo[4,5-c]pyridin-5-yl)methanone]",pKi,read-out: Ki (average),5.72
same,remaining activity at 1 µM,[1],83%
"COc1cc(OC)cc(C(=O)N2CCc3[nH]cnc3C2)c1 [MWT-S-00429, (3,5-Dimethoxyphenyl)(1,4,6,7-tetrahydro-5H-imidazo[4,5-c]pyridin-5-yl)methanone]",pKi,read-out: Ki (average),6.03
same,remaining activity at 10 µM,[1],16%
"O=C(c1cccc(F)c1)N1CCc2[nH]cnc2C1 [MWT-S-00430, (3-Fluorophenyl)(1,4,6,7-tetrahydro-5H-imidazo[4,5-c]pyridin-5-yl)methanone]",remaining activity at 1 µM,[1],40%
"CCCOc1cccc(C(=O)N2CCc3[nH]cnc3C2)c1 [MWT-S-00432, (3-Propoxyphenyl)(1,4,6,7-tetrahydro-5H-imidazo[4,5-c]pyridin-5-yl)methanone]",pKi,read-out: Ki (average),6.11
same,remaining activity at 100 µM,[1],2%
"O=C(c1cccc(-c2ccccc2)c1)N1CCc2[nH]cnc2C1 [MWT-S-00433, [1,1′-Biphenyl]-3-yl(1,4,6,7-tetrahydro-5H-imidazo[4,5-c]pyridin-5-yl)methanone]",pKi,read-out: Ki (average),6.26
same,remaining activity at 1 µM,[1],47%
"O=C(c1ccc2c(c1)OCCO2)N1CCc2[nH]cnc2C1 [MWT-S-00434, (2,3-Dihydrobenzo[b][1,4]dioxin-6-yl)(1,4,6,7-tetrahydro-5H-imidazo-[4,5-c]pyridin-5-yl)methanone]",pKi,read-out: Ki (average),5.87
same,remaining activity at 100 µM,[1],3%

# Source: patent publication US11186572B2, “Bacterial glutaminyl cyclases and inhibitors thereof for use in the treatment of periodontitis” (Fraunhofer-Gesellschaft zur Forderung der Angewandten …, priority 2016, dated 2021)
